In general, MIC refers to the lowest concentration that inhibits growth of the organism. A low value points to a more susceptible organism.

Converted amounts (≈) assume the structure as drawn.

Common to all, as to format: cell-based
The test system of test [1] is Klebsiella pneumoniae TN 1711. The experiment in a line: MIC by agar dilution method (Experimental Example). The note with it: TN1711; test organism (2) Klebsiella pneumoniae TN 1711; Trypticase soy agar; inoculum about 10^8 CFU/ml; overnight culture at 37°C; complete growth inhibition. The procedure:
(§1) The MIC of each test compound was determined by the agar dilution method. Thus, a stock aqueous solution of each test compound is serially diluted and the resultant dilution series are put in petri dishes. Then, 9.0 ml of Trypticase soy agar per dish is added and mixed. Each of the agar plates is smeared with a suspension of the test organism (about 10^8 CFU/ml). After overnight culture at 37°C, the minimum concentration of the test compound that caused a complete growth inhibition of the organism is taken as the MIC (minimal inhibitory concentration) value.
(§2) • (1) Enterobacter cloacae IFO 12937 • (2) Klebsiella pneumoniae TN 1711
(In general: Agar dilution tests growth on a series of plates holding different concentrations.)

Test [2] has as its system Enterobacter cloacae IFO 12937. Description: MIC by agar dilution method (Experimental Example). Conditions: IFO12937; test organism (1) Enterobacter cloacae IFO 12937; Trypticase soy agar; inoculum about 10^8 CFU/ml; overnight culture at 37°C; complete growth inhibition. The procedure:
as §1, §2

The test system of test [3] is Pseudomonas aeruginosa GN 3407. Description: MIC by agar dilution method (Test Example). The note with it: GN3407; test organism (3) Pseudomonas aeruginosa GN 3407; Trypticase soy agar; inoculum about 10^6 CFU/ml; overnight at 37°C. How it is done: (§3) The MIC values for the test compounds were determined by the agar dilution method. Thus, 1.0 ml of each serially diluted aqueous solution of each test compound was poured into a petri dish. Then, 9.0 ml of Trypticase soy agar was added and mixed with the aqueous solution. A suspension of the test organism (about 10^6 CFU/ml) was smeared onto the mixed agar plate and incubated overnight at 37°C.
(§4) • (1) Enterobacter cloacae IFO 12937 • (2) Klebsiella pneumoniae TN 1711 • (3) Pseudomonas aeruginosa GN 3407

Test [4] relates to Klebsiella pneumoniae TN 1711. Description: MIC by agar dilution method (Test Example). Conditions: TN1711; test organism (2) Klebsiella pneumoniae TN 1711; Trypticase soy agar; inoculum about 10^6 CFU/ml; overnight at 37°C. How it is done: as §3, §4
The subject of test [5] is Enterobacter cloacae IFO 12937. Description: MIC by agar dilution method (Test Example). The note with it: IFO12937; test organism (1) Enterobacter cloacae IFO 12937; Trypticase soy agar; inoculum about 10^6 CFU/ml; overnight at 37°C. How it is done:
as §3, §4

As to `CC(C)(O/N=C(\C(=O)N[C@@H]1C(=O)N(S(=O)(=O)[O-])[C@@H]1C[n+]1ccccc1)c1csc(N)n1)C(=O)O` (relative stereo) [Monosodium cis-3-[2-(2-amino-4-thiazolyl)-2-(Z)-(1-carboxylato-1-methylethoxyimino)acetamido]-4-pyridiniomethyl-2-azetidinone-1-sulfonate], the values for the minimum inhibitory concentration (MIC) in test [1] and in test [2] were 12.5 µg/mL and 3.13 µg/mL, respectively.

Turning to `CO/N=C(\C(=O)N[C@@H]1C(=O)N(S(=O)(=O)O)[C@@H]1C(N)=O)c1csc(N)n1` (relative stereo) [Sodium cis-3-[2-(2-amino-4-thiazolyl)-2-(Z)-methoxyiminoacetamido]-4-carbamoyl-2-azetidinone-1-sulfonate], the minimal inhibitory concentration (MIC) amounted to 0.39 µg/mL in test [1] and 1.56 µg/mL in test [2].

On to `COC(=O)CC[C@@H]1[C@H](NC(=O)/C(=N\OC(C)(C)C(=O)O)c2csc(N)n2)C(=O)N1S(=O)(=O)O` (relative stereo) [cis-3-[2-(2-Amino-4-thiazolyl)-2-(Z)-(1-carboxy-1-methylethoxyamino)acetamido]-4-(2-methoxy-carbonylethyl)-2-azetidinone-1-sulfonic acid], for which the minimum inhibitory concentration (MIC) in test [1] stood at 3.13 µg/mL (≈ 6.17 µM); in test [2], 6.25 µg/mL (≈ 12.3 µM).

Take `COC[C@@H]1[C@H](NC(=O)/C(=N\OC(C)(C)C(=O)O)c2csc(N)n2)C(=O)N1S(=O)(=O)O` (relative stereo) [cis-3-[2-(2-Amino-4-thiazolyl)-2-(Z)-(1-carboxy-1-methylethoxyimino)acetamido]-4-methoxymethyl-2-azetidinone-1-sulfonic acid]: the MIC in test [1] was determined as 0.2 µg/mL (≈ 0.43 µM); in test [2] it was 1.56 µg/mL (≈ 3.35 µM).

On to `CC(C)(O/N=C(\C(=O)N[C@@H]1C(=O)N(S(=O)(=O)O)[C@@H]1CS(C)(=O)=O)c1csc(N)n1)C(=O)O` (relative stereo) [cis-3-[2-(2-Amino-4-thiazolyl)-2-(Z)-(1-carboxy-1-methylethoxyimino)acetamido]-4-methylsulfonyl-methyl-2-azetidinone-1-sulfonic acid], for which the minimal inhibitory concentration (MIC) in test [1] was found to be 1.56 µg/mL (≈ 3.04 µM); in test [2], 12.5 µg/mL (≈ 24.3 µM).

In the case of `CC(C)(O/N=C(\C(=O)N[C@@H]1C(=O)N(S(=O)(=O)O)[C@@H]1CNC(N)=O)c1csc(N)n1)C(=O)O` (relative stereo) [cis-3-[2-(2-Amino-4-thiazolyl)-2-(Z)-(1-carboxy-1-methylethoxyimino)acetamido]-4-ureidomethyl-2-azetidinone-1-sulfonic acid], the MIC was 3.13 µg/mL (≈ 6.34 µM) in test [1] and 12.5 µg/mL (≈ 25.3 µM) in test [2].

Turning to `C[S+]([O-])C[C@@H]1[C@H](NC(=O)/C(=N\OC(C)(C)C(=O)O)c2csc(N)n2)C(=O)N1S(=O)(=O)O` (relative stereo) [cis-3-[2-(2-Amino-4-thiazolyl)-2-(Z)-(1-carboxy-1-methylethoxyimino]acetamido]-4-methylsulfinyl-methyl-2-azetidinone-1-sulfonic acid], the MIC in test [1] stood at 0.78 µg/mL (≈ 1.57 µM); in test [2] it was 3.13 µg/mL (≈ 6.29 µM).

Regarding `COC[C@@H]1[C@H](NC(=O)/C(=N\OCC(=O)O)c2csc(N)n2)C(=O)N1S(=O)(=O)O` (relative stereo) [cis-3-[2-(2-Amino-4-thiazolyl)-2-(Z)-carboxy-methoxyiminoacetamido]-4-methoxymethyl-2-azetidinone-1-sulfonic acid], the minimal inhibitory concentration (MIC) in test [1] stood at 0.1 µg/mL (≈ 0.229 µM); in test [2], 3.13 µg/mL (≈ 7.16 µM).

Consider `NC(=O)OC[C@@H]1[C@H](NC(=O)/C(=N\OCC(=O)O)c2csc(N)n2)C(=O)N1S(=O)(=O)O` [Example 2'], for which the minimal inhibitory concentration (MIC) was found to be 1.56 µg/mL (≈ 3.34 µM) in test [3], 0.05 µg/mL (≈ 0.107 µM) in test [4] and 0.05 µg/mL (≈ 0.107 µM) in test [5].

As to `CC(C)(O/N=C(\C(=O)N[C@@H]1C(=O)N(S(=O)(=O)O)[C@@H]1COC(N)=O)c1csc(N)n1)C(=O)O` [Example 4'], the minimal inhibitory concentration (MIC) came out at 6.25 µg/mL (≈ 12.6 µM) in test [3], 0.1 µg/mL (≈ 0.202 µM) in test [4] and 0.39 µg/mL (≈ 0.789 µM) in test [5].

Take `CCC[C@H]1[C@H](NC(=O)/C(=N\OC(C)(C)C(=O)O)c2csc(N)n2)C(=O)N1S(=O)(=O)O` [Sodium [3S,4S]-3-[(2-(2-aminothiazol-4-yl)-2-(Z)-(1-carboxy-1-methylethoxyimino)acetamido]-4-propyl-2-azetidinone-1-sulfonate]: the MIC was 0.78 µg/mL in test [1] and 12.5 µg/mL in test [2].

For the compound `CC(=O)CC1C(NC(=O)C(=NOC(C)(C)C(=O)O)c2csc(N)n2)C(=O)N1S(=O)(=O)O` (centres unmarked) [Sodium [3S,4S]-3-[(2-(2-aminothiazol-4-yl)-2-(Z)-(1-carboxy-1-methylethoxyimino]acetamido]-4-(2-oxopropyl)-2-azetidinone-1-sulfonate], the MIC in test [1] was found to be 3.13 µg/mL; in test [2], 12.5 µg/mL.

For `CON=C(C(=O)NC1C(=O)N(S(=O)(=O)O)C1CC(C)=O)c1csc(N)n1` (stereo not drawn) [Sodium [3S,4S]-cis-3-[(2-(2-aminothiazol-4-yl)-2-(Z)-methoxyimino]acetamido]-4-(2-oxopropyl)-2-azetidinone-1-sulfonate], the MIC in test [1] and in test [2] was 3.13 µg/mL each time.

As for `CO/N=C(\C(=O)N[C@@H]1C(=O)N(S(=O)(=O)O)[C@H]1CC(C)=O)c1csc(N)n1` [Sodium [3S, 4S]-trans-3-[2-(2-aminothiazol-4-yl]-2-(Z)-methoxyimino]acetamido]-4-(2-oxopropyl)-2-azetidinone-1-sulfonate], in test [2], inhibition of growth (MIC) required 6.25 µg/mL.

The values above are taken from patent publication EP0093376B2, “1-Sulfo-2-azetidinone derivatives, their production and use” (Takeda Chemical Industries, Ltd., priority 1982, dated 1983).
